Results from patent US9724351B2, “Compounds for the treatment of paramoxyvirus viral infections” (priority 2012, dated 2017).

How the values were obtained:
[1] = test system: Respiratory Syncytial Virus (RSV) long strain (ATCC#VR-26); experiment: RSV Antiviral Assay (CPE reduction assay); type: cell-based; settings: human respiratory syncytial virus, 120 h; HEp-2 cells infected with RSV long strain, 5 days, CCK-8 readout; bins (Table 2: less than 1 μM; Table 3: equal to or higher than 1 μM and less than 50 μM); read-out: 50% effective concentration (EC50)
In short: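 HEp-2 cells infected with 100 TCID50 RSV long strain per well, compounds from 100 μM or 1 μM in 9-point ⅓ dilutions, duplicates, 1% DMSO. After 5 days at 37 °C, viable cells measured by CCK-8 (A450, 630 nm background); EC50 by regression on mean O.D.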

[2] = Cytotoxicity Determination; type: cell-based; settings: human, HEp-2 cells, without addition of virus, CCK-8 readout, bins (Table 4: greater than 100 μM; Table 5: equal to or less than 100 μM and greater than 10 μM), read-out: 50% cytotoxicity concentration (CC50)
In short: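 Uninfected cells were exposed to compounds in duplicate over a 7-point ½ dilution series starting at 100 μM final, for 5 days at 37 °C, 5% CO2. CCK-8 was then added for 3-4 h, and CC50 was calculated from optical density.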

Row | Compound | EC50 [1] [µM] | CC50 at 5 days [2] [µM]
1 | COc1ccc(C(=O)NCC(=O)c2nc(-c3csc4c(F)cccc34)cc(C(C)C)c2OC)cc1OC [Compound 1341] | 1 to 50 | > 100
2 | COc1ccc(C(=O)NCC(=O)N/N=C(\CCO)c2csc3ccccc23)cc1OC [Compound 492] | < 1 | > 100
3 | COc1cc(C(=O)N[C@@H](CCO)C(=O)c2ccc(OC)c(-c3ccc(F)c(C(F)(F)F)c3)n2)ccc1OCCO [Compound 1807] | < 1 | > 100
4 | COc1cc(C(=O)NCC(=O)c2ccc(OC)c(-c3ccc(F)c(Br)c3)n2)ccc1OCc1ncn[nH]1 [Compound 3903] | < 1 | > 100
5 | COc1cc(C(=O)NCC(=O)c2ccc(OC)c(-c3csc4c(F)cccc34)n2)ccc1OCCF [Compound 2625] | < 1 | > 100
6 | COc1ccc(C(=O)NCC(=O)c2ccc(OC)c(-c3ccc4[nH]c(C)nc4c3)n2)cc1OC [Compound 1521] | 1 to 50 | 10 to 100
7 | COc1ccc(C(=O)NCC(=O)N/N=C(\C)c2csc3c(N)cccc23)cc1OC [Compound 497] | 1 to 50 | > 100
8 | COc1cc(C(=O)NCC(=O)c2ccc(OC)c(-c3ccc(F)c(F)c3)n2)ccc1OCCO [Compound 1618] | < 1 | > 100
9 | COc1ccc(C(=O)NCC(=O)N/N=C(\CC#N)c2csc3ccccc23)cc1OC [Compound 456] | 1 to 50 | > 100
10 | COc1ccc(C(=O)NCC(=O)c2ccc3ccccc3n2)cc1OC [Compound 1701] | 1 to 50 | > 100
11 | COCC/C(=N/NC(=O)CNC(=O)c1ccc(OC)c(OC)c1)c1csc2ccccc12 [Compound 494] | < 1 | > 100
12 | COc1ccc(C(=O)NCC(=O)c2ccc(OC)c(-c3ccc(Cl)cc3)n2)cc1OC [Compound 1525] | < 1 | > 100
13 | COc1cc(C(=O)NCC(=O)c2ccc(OC)c(-c3ccc(F)c(Cl)c3)n2)ccc1OCC(C)(C)O [Compound 1319] | < 1 | > 100
14 | CNC(=O)c1ccc(-c2nc(C(=O)CNC(=O)c3ccc(OC)c(OC)c3)ccc2OC)cc1 [Compound 1504] | 1 to 50 | > 100
15 | COc1cc(C(=O)NCC(=O)N(C)C(=O)Nc2csc3c(F)cccc23)ccc1OCCO [Compound 2802] | 1 to 50 | > 100
16 | COc1ccc(C(=O)NCC(=O)N/N=C(\C)c2c(OC)sc3ccccc23)cc1OC [Compound 400-19] | 1 to 50 | 10 to 100
17 | COc1ccc(C(=O)NCC(=O)NN=C(c2ccccc2)c2ccccc2)cc1OC [Compound 440] | 1 to 50 | > 100
18 | COc1ccc(C(=O)NCC(=O)c2ccc(OC)c(-c3ccc(C)cc3)n2)cc1OC [Compound 1530] | 1 to 50 | > 100
19 | COc1cc(C(=O)NCC(=O)c2ccc(OC)c(-c3ccc(F)c(Cl)c3)n2)ccc1OCc1cnc[nH]1 [Compound 1332] | < 1 | 10 to 100
20 | COc1ccc(C(=O)NCC(=O)N/N=C(\C)c2csc3ccccc23)cc1OC [Compound 411] | < 1 | 10 to 100

Row | Compound | EC50 [1] [µM] | CC50 at 5 days [2] [µM]
21 | CCOc1ccc(C(=O)NCC(=O)N/N=C(/CCOC)c2csc3c(F)cccc23)cc1OC [Compound 463B] | < 1 | > 100
22 | COc1ccc(C(=O)NC(CCC(=O)O)C(=O)c2ccc(OC)c(-c3csc4c(F)cccc34)n2)cc1OC (stereo not shown) [Compound 1821] | < 1 | 10 to 100
23 | COc1ccc(C(=O)NCC(=O)c2ccc(OC)c(-c3ccc4scnc4c3)n2)cc1OC [Compound 1539] | 1 to 50 | > 100
24 | COc1ccc(C(=O)NCC(=O)N/N=C/c2csc3ccccc23)cc1OC [Compound 401] | 1 to 50 | 10 to 100
25 | CCCCCC/C(=N\NC(=O)CNC(=O)c1ccc(OC)c(OC)c1)c1csc2ccccc12 [Compound 453] | 1 to 50 | 10 to 100
26 | COc1ccc(C(=O)NCC(=O)c2ccc(OC)c(-c3ccc4ccccc4c3)n2)cc1OC [Compound 1517] | 1 to 50 | > 100
27 | C=CCC/C(=N\NC(=O)CNC(=O)c1ccc(OCC)c(OC)c1)c1csc2ccccc12 [Compound 458A] | < 1 | 10 to 100
28 | CCc1cc(C(=O)CNC(=O)c2ccc(OCCO)c(OC)c2)nc(-c2coc3c(F)cccc23)c1 [Compound 2111] | < 1 | > 100
29 | CCCC/C(=N/NC(=O)CNC(=O)c1ccc(OCC)c(OC)c1)c1csc2c(F)cccc12 [Compound 462B] | < 1 | 10 to 100
30 | CNC(=O)COc1ccc(C(=O)NCC(=O)c2ccc(OC)c(-c3ccc(F)c(Cl)c3)n2)cc1OC [Compound 1321] | 1 to 50 | 10 to 100
31 | COCCc1ccc(C(=O)NCC(=O)c2ccc(OC)c(-c3ccc(F)c(Br)c3)n2)cc1OC [Compound 1334] | < 1 | 10 to 100
32 | COc1ccc(C(=O)NCC(=O)N/N=C/c2csc3c(F)cccc23)cc1OC [Compound 490] | < 1 | > 100
33 | CCN(CC)c1ccc(C(=O)NCC(=O)N/N=C(\C)c2csc3ccccc23)cc1 [Compound 469] | 1 to 50 | 10 to 100
34 | COc1cc(C(=O)NCC(=O)c2cc(C(=O)O)cc(-c3csc4c(F)cccc34)n2)ccc1OCCO [Compound 1258] | 1 to 50 | > 100
35 | COc1ccc(C(=O)NCC(=O)N/N=C2\CCNc3ccccc32)cc1OC [Compound 447] | 1 to 50 | > 100
36 | COc1cc(C(=O)NCC(=O)c2ccc(OC)c(-c3ccc(OC(F)(F)F)cc3)n2)ccc1OCCO [Compound 1602] | < 1 | > 100
37 | CCOc1ccc(C(=O)NCC(=O)N/N=C/c2csc3ccccc23)cc1OCC [Compound 231] | 1 to 50 | 10 to 100
38 | CCCC/C(=N/NC(=O)CNC(=O)c1ccc(OCCO)c(OC)c1)c1csc2c(F)cccc12 [Compound 602] | < 1 | > 100
39 | COc1cc(C(=O)NCC(=O)c2cccc(-c3csc4c(F)cccc34)n2)ccc1O [Compound 1226] | 1 to 50 | 10 to 100
40 | COc1cc(C(=O)NCC(=O)c2cccc(-c3csc4c(F)cccc34)n2)ccc1OCC(N)=O [Compound 1247] | < 1 | 10 to 100

Row | Compound | EC50 [1] [µM] | CC50 at 5 days [2] [µM]
41 | COc1cc(C(=O)NCC(=O)c2ccc(OC)c(-c3ccc(Cl)c(Cl)c3)n2)ccc1OCCF [Compound 2627] | < 1 | > 100
42 | COc1cc(C(=O)NCC(=O)c2ccc(OC)c(-c3ccnc(Cl)c3)n2)ccc1OCCO [Compound 1611] | 1 to 50 | > 100
43 | COc1cc(C(=O)NCC(=O)c2ccc(OC)c(-c3ccc(F)c(Cl)c3)n2)ccc1OCC(=O)N(C)C [Compound 1322] | < 1 | > 100
44 | CCc1cc(C(=O)CNC(=O)c2ccc(OCCO)c(OC)c2)nc(-c2csc3c(F)cccc23)c1 [Compound 1250] | < 1 | > 100
45 | COc1ccc(C(=O)NCC(=O)c2ccc(OC)c(-c3ccc(F)c(Cl)c3)n2)cc1OC [Compound 1529] | < 1 | > 100
46 | CCOc1ccc(C(=O)NCC(=O)N/N=C/c2c[nH]c3c(F)cccc23)cc1OC [Compound 400-27] | 1 to 50 | > 100
47 | COc1ccc(C(=O)NCC(=O)c2cc(C3CC3)cc(-c3csc4c(F)cccc34)n2)cc1OC [Compound 1249] | 1 to 50 | > 100
48 | COc1ccc(C(=O)NCC(=O)N/N=C(/c2csc3ccccc23)C(F)F)cc1OC [Compound 445] | 1 to 50 | > 100
49 | COc1ccc(C(=O)NCC(=O)N/N=C/c2cc3ccccc3o2)cc1OC [Compound 409] | 1 to 50 | 10 to 100
50 | CCOCC/C(=N\NC(=O)CNC(=O)c1ccc(OC)c(OC)c1)c1csc2ccccc12 [Compound 400-1] | < 1 | > 100
51 | COc1cc(C(=O)NCC(=O)c2ccc(OC)c(-c3ccc(Cl)cc3)n2)ccc1OCCO [Compound 1607] | < 1 | 10 to 100
52 | COc1cc(C(=O)NC(CCO)C(=O)c2ccc(OC)c(-c3ccc(F)c(Cl)c3)n2)ccc1OCCO (stereo not shown) [Compound 1837] | < 1 | 10 to 100
53 | C/C(=N\NC(=O)CNC(=O)c1ccc2c(c1)OCCO2)c1csc2ccccc12 [Compound 471] | 1 to 50 | > 100
54 | COc1cc(C(=O)NCC(=O)c2ccc(OC)c(-c3ccc(F)c(Br)c3)n2)ccc1OCc1cnc[nH]1 [Compound 1333] | < 1 | 10 to 100
55 | COc1ccc(C(=O)NCC(=O)N/N=C/c2c(C)sc3ccccc23)cc1OC [Compound 400] | 1 to 50 | 10 to 100
56 | COc1ccc(C(=O)NCC(=O)c2ccc(OC)c(-c3cncnc3)n2)cc1OC [Compound 1520] | 1 to 50 | > 100
57 | CCOc1cc(C(=O)NCC(=O)N/N=C(\C)c2csc3ccccc23)ccc1N(CC)CC [Compound 509] | 1 to 50 | 10 to 100
58 | COc1cc(C(=O)NC(C)C(=O)c2ccc(OC)c(-c3csc4c(F)cccc34)n2)ccc1OCCO (stereo not shown) [Compound 1808] | < 1 | 10 to 100
59 | CCCC/C(=N\NC(=O)CNC(=O)c1cc(OC)c(OC)cc1Cl)c1csc2ccccc12 [Compound 247] | 1 to 50 | > 100
